In patent US20260315372A1, “INJECTABLE PHARMACEUTICAL FORMULATIONS” (priority 2023, published 2026):
Read-outs that look alike come from different tables or passages of the source.

Key:
[1] = cited from earlier work
[2] = dog, in vivo, sc
[3] = set-up: species or system male Beagle dogs; details: dog, in vivo, sc, 1 mg/kg
Procedure: D: Dose Concentration and Dose Volume—Pharmacokinetics of DMT-d10 in Male Beagle Dogs Following Subcutaneous Administration at 1 mg/kg Formulated in Hyaluronic Acid Concentrations at Higher Dosing Solution Concentrations and Lower Dosing Volume
The objective of this study was to determine the effect of increasing the dosing solution concentration of DMT-d10 and decreasing the dose volume on the SC release of DMT-d10 into the systemic circulation. This study was conducted using the same CRO, housing, and materials as described above in part A. All conditions described in part A pertain to this study with the exceptions noted below.
Test Items. […]
[…]. Once homogeneous, the density was measured to be 1.000 g/cm^3. […] The visual appearance was recorded as a clear/yellowish homogenous solution at this stage. The pH was measured using a calibrated pH meter and recorded to be 3.24. […] The density was measured to be 1.012 g/cm^3. […]
[…]. The density of the resultant 0.8% (w/v, nominal) sodium hyaluronate solution was recorded to be 1.002 g/cm^3. […] The final visual appearance of the formulation was recorded as a clear, colorless, homogenous solution.
(§1) Subcutaneous injections. […] Appropriate volumes of dose were calculated per each animal based on real animal bodyweights and a target dose volume of 0.05 mL/kg or 0.25 mL/kg. […]

[4] = set-up: species or system male Beagle dogs; details: dog, in vivo, sc
Procedure: (§2) Prior to acceptance for use on study, animals were subject to an examination and the results found to be satisfactory. All animals were weighed prior to each dose administration and the bodyweights recorded. Animals were checked regularly throughout the duration of the study. Any clinical signs were closely monitored and recorded.
Subcutaneous injections. The target dose was 0.1 mg/kg, free base at a dose concentration of 0.4 mg/mL. Appropriate volumes of dose were calculated per each animal based on real animal bodyweights and a target dose volume of 0.25 mL/kg. The volumes were pulled into plastic Troge 2.5 mL syringes. Animals were identified by microchip and tattoo. […]
Subcutaneous injections. […] Appropriate volumes of dose were calculated per each animal based on real animal bodyweights and a target dose volume of 0.25 mL/kg. […]
as §1
Subcutaneous injections. DMT+DMT-d10 were co-dosed (via Formulation 35) at 0.5 mg/kg/analyte, total dose of 1.0 mg/kg (free base), each at a dose concentration of 10 mg/mL (nominal), total dose concentration of 20 mg/mL (nominal) and a dose volume of 0.05 mL/kg calculated per each animal based on real animal bodyweights. […]

in vivo [5] = test: in vivo; set-up: species or system male Beagle dogs; details: dog
Excerpt: A: Proof of Concept—Pharmacokinetics (PK) of DMT-d10 in Male Beagle Dogs Following Subcutaneous Administration in Saline or Sodium Hyaluronate
The objective of this study was to determine if a 1% (w/v) sodium hyaluronate formulation could modify the SC release of DMT-d10 compared to 0.9% (w/v) saline formulation.
Animals. Three, non-naïve, male Beagle dogs aged ca 2-5 years and weighing 10-15 kg at dosing were supplied by Charles River for use on this study and were bred for use in scientific procedures. The animal work in this study was conducted under the UK Home Office Project License No. PPL PP9376768, Pharmacokinetics of Pharmaceuticals. This was a cross-over design study to reduce the number of dogs in use and as well as decrease interindividual variability.
Housing. Animals were uniquely identified by microchip and tattoo in this study. During pre-trial and on-study periods, the animals were group housed in caging appropriate to the species. The animals were housed singly for up to 4 h per day and during this time had access to their daily ration of diet.
IPS 5007 diet was provided as a daily ration throughout the study. A 350 g ration of feed per dog was provided once daily, except during designated procedures. On the morning of dosing (pre-dose), the animals were deprived from their daily food allowance until 2 h post dose. Mains quality tap water was available ad libitum. Details of diet and water are maintained at the test facility.
as §2
Test Items. DMT-d10 fumarate was formulated as a solution in 0.9% (w/v) saline, pH 5.5-6 (control) or in 1% (w/v, nominal) sodium hyaluronate in water for injection (WFI) (Formulation 28) at a free base concentration of 0.4 mg/mL (nominal) for SC injection. Each test item was prepared on the morning of dose administration and stored at ambient temperature, protected from light, until dosing.
Control (0.9% w/v saline): On the day prior to dosing, DMT-d10 fumarate was removed from storage (frozen, in a freezer set to maintain ≤−20° C., protected from light) and allowed to equilibrate to room temperature. Using a precision analytical balance, 9.7 mg of DMT-d10 fumarate was weighed into a 20 mL headspace vial which was pre-calibrated to a final volume of 15 mL with a magnetic stir bar inside. The weighed API was returned to storage. On the morning of dosing, the weighed API was removed from storage and allowed to equilibrate to room temperature. 13.55 mL of vehicle (0.9% w/v saline) was added to the vial (equivalent to 90% of final volume) and set to magnetically stir for ca 35 minutes. Using a calibrated pH meter, the solution pH was measured. […] The solution was made to final volume of 15 mL, using the pre-calibrated line, with 0.9% w/v saline. The final pH was recorded as 5.53. The solution was then filtered using a […] PVDF syringe filter in the laminar air flow cabinet (LAFC). The visual appearance of the solution was recorded as a clear, colorless, homogenous solution. […] The control solution was protected from light at all times.
Formulation 28: On the morning of dosing, DMT-d10 fumarate was removed from storage (frozen, in a freezer set to maintain ≤−20° C., protected from light) and allowed to equilibrate to room temperature. Using a precision analytical balance, 11.02 mg of DMT-d10 fumarate was weighed into a 20 mL headspace vial containing a magnetic stir bar. 3.5 mL of WFI was added to the vial and set to stir, making a stock solution with a free base concentration of 2 mg/mL (nominal) DMT-d10. Once homogenous, 2 mL of the stock solution was dispensed into a vial containing 8 mL of 1.25% (w/v, nominal) sodium hyaluronate and vortex mixed until homogenous. […]

in vivo [6] = details: dog, sc, 0.5 mg/kg; for Vd/F: Vz/F (mean)
[7] = tested on: trace amine-associated receptors (TAARs); details: cited from earlier work
5-HT2C = details: cited from earlier work
5-HT2A receptor = details: cited from earlier work
sigma-1 receptor = details: cited from earlier work
[8] = tested on: serotonin transporter (SERT); details: cited from earlier work
[9] = in vivo; cited from earlier work
[10] = tested on: 5-hydroxytryptamine-(5-HT)1A; details: cited from earlier work
5-HT2A = details: cited from earlier work

COc1ccc2[nH]cc(CCN(C)C)c2c1 [Formulation 5-MeO-DMT, 5-methoxy-N,N-dimethyltryptamine]
oral bioavailability ([1]; oral): lacks oral bioavailability

[2H]C([2H])([2H])N(C([2H])([2H])[2H])C([2H])([2H])C([2H])([2H])c1c[nH]c2ccccc12 [DMT-d10, 2-(1H-indol-3-yl)-N,N-bis(methyl-d3)ethan-1-amine-1,1,2,2-d4]
decrease of apparent clearance (Cl/F) by deuteration [2]: 2.2 × | decrease of apparent volume of distribution (Vz/F) by deuteration [2]: 1.6 × | increase of AUCinf by deuteration [2]: 2.2 × | increase of Cmax by deuteration [2]: 1.3 × | increase of MRTinf by deuteration [2]: 1.4 × | increase of t1/2 by deuteration [2]: 1.4 × | plasma concentrations quantifiable to [2]: ≤ 4 h | Vz/F (mean) ([2]; 0.5 mg/kg): 4.72 L/kg | plasma DMT-d10 concentrations quantifiable up to [3]: up to 4 hours | adverse reactions to the administration [4]: No adverse reactions | clinical signs post-dose [4]: Mild, transient clinical signs | dose proportionality of Cmax and AUCinf (in vivo [5]): increased in a dose proportional manner | plasma DMT-d10 concentrations quantifiable up to (in vivo [5]): up to 4 hours | MRT inf (in vivo [5]; sc): ~90 min | Tmax (in vivo [5]; sc): 30 to 45 min | half-life (in vivo [5]; sc): ~54 min | plasma DMT-d10 concentrations quantifiable up to (in vivo [5]; sc): up to 4 hours | AUC(0-inf) (in vivo [6]): 109 ng·h/mL | CL/F (in vivo [6]): 77.5 mL/min/kg | Cmax (in vivo [6]): 75.6 ng/mL | MRT inf (in vivo [6]): 73.8 min | Tmax (in vivo [6]): 30 min | half-life (in vivo [6]): 43.3 min | Vd/F (in vivo [6]): 4.73 L/kg

CN(C)CCc1c[nH]c2ccccc12 [DMT, 2-(1H-indol-3-yl)-N,N-dimethylethan-1-amine]
binding to TAARs [7]: binds to other receptors | binding to 5-HT2C (5-HT2C): binds with affinity | agonism at the 5-HT2A receptor (5-HT2A receptor): potent agonist | plasma concentrations quantifiable to [2]: ≤ 2 h | binding to sigma-1 receptor (sigma-1 receptor): binds to other receptors | oral activity ([1]; in vivo, po): not orally active | binding to SERT [8]: binds with affinity | therapeutically relevant psychedelic dose [9]: ≥ 70 mg | binding to 5-HT1A [10]: binds with affinity | AUC(0-inf) (in vivo [6]): 48.7 ng·h/mL | CL/F (in vivo [6]): 173 mL/min/kg | Cmax (in vivo [6]): 58.1 ng/mL | MRT inf (in vivo [6]): 52 min | Tmax (in vivo [6]): 30 min | half-life (in vivo [6]): 32 min | Vd/F (in vivo [6]): 7.59 L/kg | binding to 5-HT2A (5-HT2A): binds with affinity
